Experimental findings from patent US20200384188A1, “SYSTEMS, DEVICES, FORMULATIONS AND METHODS FOR CONTROLLED DRUG DELIVERY” (priority 2017, published 2020) are described below.

The test system of this assay is male Sprague-Dawley rats. Kind of assay: Writhing test (acetic acid-induced abdominal spasm). The format is in vivo, rat. As to the method: In the abdominal spasm (acetic acid-induced writhing) test, acetic acid is injected into the peritoneal cavity where it directly activates nociceptors and results in an abdominal writhing response. This writhing response is characterized by contraction of abdominal muscles followed by an extension of the hind limbs (Collier et al., 1968). This pain-behavior is considered reflexive and evidence of visceral pain associated with visceral chemoreceptors (Hammond, 1989). […] It is widely accepted that this model can be used as a screening method to determine the effects of drugs on inflammatory induced nociception (Vogel et al., 1997; Chiba et al., 2008). Although it can be used as a screening tool, it is unclear as to which clinical conditions the use of a chemical irritant represents (Gregory et al., 2013).
Eighteen male Sprague-Dawley rats were obtained from Charles River, Margate, United Kingdom, and were used for dosing. Animals weighed between 319 and 419 g on the day of dosing. Eight male Han Wister rats were obtained from Charles River, Margate, United Kingdom and used for Group 4. Animals weighed between 381 and 504 g on the day of dosing. The animals were assessed according to Table 1.
Animals were dosed subcutaneously via a motorized insulin pump.
At 1 hour post administration of ketamine, each animal was administered a 1 mL intraperitoneal injection of 1% acetic acid. Animals were immediately placed into individual observation chambers, and the number of abdominal spasms elicited over the subsequent 25-minute period was recorded.
Comparisons were made to background data.
For orientation: In writhing tests, fewer writhes than in controls are read as antinociception.

Molecules are shown by their SMILES. Where “and” joins values, the source holds several entries; their conditions need not be identical. Identical values can stand only once.

Regarding `CNC1(c2ccccc2Cl)CCCCC1=O` (stereo not drawn) [ketamine], the “Number of acetic acid-induced Abdominal Spasms, individual animals” value (50 mg/kg sc, 1 hour after ketamine, animals R0201-R0206) was 0 and 4 and 3 and 5 and 1 and 8. Moreover, the “reduction of elicited spasms from baseline values” (ketamine infusion versus baseline of 29/25 min) turned out to be 86%. Where the note is “ketamine infusion, baseline 29/25 min”, the “number of elicited spasms, average” value is 4 /25 min.
